Results on seven compounds are retold here after patent US6498275B1, “Use of compounds for the elevation of pyruvate dehydrogenase activity” (AstraZeneca AB, priority 1998, dated 2002).

One series has as its system PDH. The conditions noted are these: cited from earlier work.
For series [1] the following is noted: cited from earlier work.

As usually defined, the melting point is the temperature of the solid-liquid transition. Compound `CC(C)(O)C(=O)Nc1ccc(Sc2ccccc2)cc1F` had a melting point of 91 to 92.5 °C.

As to `C[S+]([O-])c1ccccc1S(=O)(=O)c1ccc(NC(=O)[C@@](C)(O)C(F)(F)F)c(Cl)c1` (stereo partly shown), the melting point fell in the range of 118 to 120 °C.

Compound `CC(=O)Nc1cc(S(=O)(=O)c2ccccc2)ccc1NC(=O)C(C)(O)C(F)(F)F` (stereo not shown) registered a melting point of 205 to 207 °C.

As to `O=C(O)C(Cl)Cl` [DCA, dichloroacetic acid], in the series with PDH (after acute administration in animals (Vary et al. 1988)), the “activity of PDH” value is given as “increases the activity of PDH”. Further, the “proportion of PDH in its active form” value with PDH (single administration, 150 mg/kg, intraperitoneally (Vary et al. 1988)) was “increased the proportion of PDH in its active form”. In series [1] (Stacpoole et al. 1978), the glycaemia result is recorded as “reducing glycaemia”. Also, the plasma glucose result in series [1] (after repeated administration (Evans and Stacpoole 1982)) is reported as “significant decrease in plasma glucose”.

On to `CC(C)(O)C(=O)Nc1ccc(S(=O)(=O)c2ccccc2)cc1F`, for which the melting point is 155.5 to 156.5 °C.

As to `CC(C)(O)C(=O)Nc1ccc(Sc2ccc(NS(C)(=O)=O)cc2)cc1Cl`, the melting point was in the range of 138 to 140 °C.

`C[C@@](O)(C(=O)Nc1ccc(S(=O)(=O)c2ccccc2NCCO)cc1Cl)C(F)(F)F`: the melting point is 68 to 70 °C.
